Measurements published in PMC7784776 (ACS chemical biology, 2020).
Values after ≈ are worked out from the molar mass of the structure shown. Values joined by “and” are separate entries in the source; they are usually repeats but may differ in a detail not shown here. Equal entries are not always repeated. Where two headings read alike, the source gives them in different places.

How the values were obtained:
PBP3 [1] = biological target: T1, PBP3 (Bacillus subtilis, UniProt P42971); test: Fluorescent whole cell β-lactam titration with Boc-FL readout, SDS-PAGE; assay type: cell-based
T1 sequence (P42971 whole entry): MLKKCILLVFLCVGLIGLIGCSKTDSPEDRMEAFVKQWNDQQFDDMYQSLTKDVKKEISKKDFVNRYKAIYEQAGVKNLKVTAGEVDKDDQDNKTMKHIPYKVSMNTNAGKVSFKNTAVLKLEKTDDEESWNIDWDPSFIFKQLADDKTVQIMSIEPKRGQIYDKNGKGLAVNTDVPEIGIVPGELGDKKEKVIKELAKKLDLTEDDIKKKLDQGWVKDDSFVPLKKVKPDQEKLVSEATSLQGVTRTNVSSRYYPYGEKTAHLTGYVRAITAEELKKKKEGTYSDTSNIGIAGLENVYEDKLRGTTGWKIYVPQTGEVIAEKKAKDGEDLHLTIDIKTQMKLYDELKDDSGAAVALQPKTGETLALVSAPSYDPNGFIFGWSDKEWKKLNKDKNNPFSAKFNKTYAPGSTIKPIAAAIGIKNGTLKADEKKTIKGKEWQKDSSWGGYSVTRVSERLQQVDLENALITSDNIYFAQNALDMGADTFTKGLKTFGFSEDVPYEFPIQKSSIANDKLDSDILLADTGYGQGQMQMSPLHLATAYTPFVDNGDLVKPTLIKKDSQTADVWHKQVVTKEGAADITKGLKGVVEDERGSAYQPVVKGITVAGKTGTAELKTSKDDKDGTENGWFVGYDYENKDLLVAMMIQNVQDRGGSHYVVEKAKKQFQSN

PBP1a/1b = PBP1a/1b (Bacillus subtilis, UniProt P39793); test: as above; assay type: cell-based
Sequence of PBP1a/1b (P39793 77-662): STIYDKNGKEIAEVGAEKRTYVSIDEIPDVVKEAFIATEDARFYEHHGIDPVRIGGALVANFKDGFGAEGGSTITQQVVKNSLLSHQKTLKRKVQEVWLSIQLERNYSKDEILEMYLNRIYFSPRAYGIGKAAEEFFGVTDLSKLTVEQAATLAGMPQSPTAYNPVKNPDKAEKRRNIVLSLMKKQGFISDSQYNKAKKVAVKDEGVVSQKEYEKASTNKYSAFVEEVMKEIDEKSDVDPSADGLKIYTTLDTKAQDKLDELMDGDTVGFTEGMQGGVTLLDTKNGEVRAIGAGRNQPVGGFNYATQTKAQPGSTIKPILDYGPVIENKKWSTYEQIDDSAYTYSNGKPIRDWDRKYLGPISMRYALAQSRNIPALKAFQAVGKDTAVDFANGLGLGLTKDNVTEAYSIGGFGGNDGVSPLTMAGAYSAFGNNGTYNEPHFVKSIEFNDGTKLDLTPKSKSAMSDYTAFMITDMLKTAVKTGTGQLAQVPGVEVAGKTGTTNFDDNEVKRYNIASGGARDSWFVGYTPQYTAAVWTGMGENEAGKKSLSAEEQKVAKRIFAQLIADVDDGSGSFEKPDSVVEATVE

PBP2a = PBP2a (Bacillus subtilis, UniProt P54488); test: as above; assay type: cell-based
Sequence of PBP2a (P54488 whole entry): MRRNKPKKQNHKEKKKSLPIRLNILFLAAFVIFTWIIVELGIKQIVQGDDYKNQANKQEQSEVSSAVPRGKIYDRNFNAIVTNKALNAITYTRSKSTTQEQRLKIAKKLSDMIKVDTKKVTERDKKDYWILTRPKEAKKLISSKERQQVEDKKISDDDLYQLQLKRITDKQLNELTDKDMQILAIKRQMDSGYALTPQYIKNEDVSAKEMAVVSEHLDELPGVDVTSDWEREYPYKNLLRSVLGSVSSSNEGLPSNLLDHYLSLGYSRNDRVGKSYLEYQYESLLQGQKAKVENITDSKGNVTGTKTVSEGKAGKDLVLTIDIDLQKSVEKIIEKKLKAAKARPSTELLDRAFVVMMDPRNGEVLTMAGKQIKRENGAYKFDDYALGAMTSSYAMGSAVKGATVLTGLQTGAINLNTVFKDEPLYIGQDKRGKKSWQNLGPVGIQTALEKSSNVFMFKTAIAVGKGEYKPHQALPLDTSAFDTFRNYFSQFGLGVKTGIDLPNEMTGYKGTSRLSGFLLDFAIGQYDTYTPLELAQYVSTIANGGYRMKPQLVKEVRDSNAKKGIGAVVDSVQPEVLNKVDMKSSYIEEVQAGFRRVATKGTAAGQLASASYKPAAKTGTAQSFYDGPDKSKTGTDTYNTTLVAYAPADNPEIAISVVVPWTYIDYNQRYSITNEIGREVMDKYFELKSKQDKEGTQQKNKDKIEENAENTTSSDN

PBP4 = PBP4 (Bacillus subtilis, UniProt P40750); test: as above; assay type: cell-based
Sequence of PBP4 (P40750 22-624): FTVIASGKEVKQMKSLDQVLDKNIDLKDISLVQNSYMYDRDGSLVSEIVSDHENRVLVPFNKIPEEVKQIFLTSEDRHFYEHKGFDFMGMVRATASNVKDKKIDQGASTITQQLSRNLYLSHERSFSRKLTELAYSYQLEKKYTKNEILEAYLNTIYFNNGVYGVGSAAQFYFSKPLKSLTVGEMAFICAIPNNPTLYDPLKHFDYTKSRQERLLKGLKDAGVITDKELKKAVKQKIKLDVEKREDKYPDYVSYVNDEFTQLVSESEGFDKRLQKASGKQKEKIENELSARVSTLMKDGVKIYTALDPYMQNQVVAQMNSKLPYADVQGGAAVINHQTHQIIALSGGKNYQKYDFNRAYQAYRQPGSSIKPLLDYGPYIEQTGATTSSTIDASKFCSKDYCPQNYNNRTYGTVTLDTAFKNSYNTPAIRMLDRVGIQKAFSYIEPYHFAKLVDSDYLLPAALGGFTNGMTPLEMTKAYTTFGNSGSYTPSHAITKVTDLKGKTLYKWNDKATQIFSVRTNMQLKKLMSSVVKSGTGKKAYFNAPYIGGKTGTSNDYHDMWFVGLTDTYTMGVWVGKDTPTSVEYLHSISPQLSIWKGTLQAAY

PBP5 = PBP5 (Bacillus subtilis, UniProt P08750); test: as above; assay type: cell-based
Sequence of PBP5 (P08750 32-443): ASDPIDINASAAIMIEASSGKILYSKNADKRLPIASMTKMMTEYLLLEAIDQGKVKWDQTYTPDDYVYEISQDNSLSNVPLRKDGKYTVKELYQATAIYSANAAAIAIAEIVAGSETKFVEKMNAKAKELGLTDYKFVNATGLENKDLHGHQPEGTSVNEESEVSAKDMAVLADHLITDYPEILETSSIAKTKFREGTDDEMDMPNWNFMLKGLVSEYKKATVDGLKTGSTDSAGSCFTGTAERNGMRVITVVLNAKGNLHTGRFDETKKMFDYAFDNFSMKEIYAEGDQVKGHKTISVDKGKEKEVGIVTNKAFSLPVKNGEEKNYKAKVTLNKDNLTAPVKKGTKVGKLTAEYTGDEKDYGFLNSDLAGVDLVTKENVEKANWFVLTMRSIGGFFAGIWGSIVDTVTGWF

B. subtilis PY79 = test: Minimum inhibitory concentration; assay type: cell-based; conditions: Bacillus subtilis
PBP2b/H = PBP2b/H (Bacillus subtilis, UniProt Q07868); test: Fluorescent whole cell β-lactam titration with Boc-FL readout, SDS-PAGE; assay type: cell-based; conditions: for inhibition of PBP2b at MIC: at growth inhibitory concentration, substantial inhibition (>50%) not the case
Sequence of PBP2b/H (Q07868 whole entry): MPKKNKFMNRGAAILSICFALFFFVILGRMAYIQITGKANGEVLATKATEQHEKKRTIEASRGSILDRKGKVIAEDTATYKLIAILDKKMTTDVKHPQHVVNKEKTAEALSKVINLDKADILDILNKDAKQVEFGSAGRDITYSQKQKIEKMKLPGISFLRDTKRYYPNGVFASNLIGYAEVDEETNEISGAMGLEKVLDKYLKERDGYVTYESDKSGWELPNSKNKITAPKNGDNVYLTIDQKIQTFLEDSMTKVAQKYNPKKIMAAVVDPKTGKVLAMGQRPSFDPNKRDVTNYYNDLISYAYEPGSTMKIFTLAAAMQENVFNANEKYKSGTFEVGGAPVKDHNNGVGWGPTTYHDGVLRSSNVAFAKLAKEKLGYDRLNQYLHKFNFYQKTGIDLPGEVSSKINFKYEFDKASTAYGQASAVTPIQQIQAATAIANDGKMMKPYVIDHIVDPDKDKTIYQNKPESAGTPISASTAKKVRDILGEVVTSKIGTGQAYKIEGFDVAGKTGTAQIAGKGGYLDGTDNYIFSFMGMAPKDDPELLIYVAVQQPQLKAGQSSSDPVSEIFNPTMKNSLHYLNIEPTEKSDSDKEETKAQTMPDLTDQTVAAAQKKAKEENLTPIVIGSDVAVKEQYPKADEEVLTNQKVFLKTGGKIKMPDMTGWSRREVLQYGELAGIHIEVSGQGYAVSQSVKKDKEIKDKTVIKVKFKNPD

PBP3 [2] = biological target: T1, PBP3; test: Fluorescence imaging of PBP3 activity with MEM-BODIPY FL in live DK654; assay type: cell-based; conditions: pretreatment 10 μg/mL
B. subtilis PBPs [3] = test: PBP activity profile after growth with sub-MIC meropenem; assay type: cell-based, Bacillus subtilis; conditions: 0.01 μg/mL, 2 h
B. subtilis PBPs [4] = test: β-Lactam titration of DK694; assay type: cell-based, Bacillus subtilis; conditions: DK694 (ΔpbpH) cells
[5] = IC50 PBP3, B. subtilis PY79 whole cells, average of two experiments
[6] = read-out: IC50 PBP2a, B. subtilis PY79 whole cells, average of two experiments

SMILES | IC50 (PBP3 [1]; [5]) [µM] | IC50 (PBP1a/1b) [µM] | IC50 (PBP2a) [µM] | IC50 (PBP4) [µM] | IC50 (PBP5) [µM] | MIC (B. subtilis PY79) [µg/mL] | IC50 (PBP2b/H) [µM] | IC50 (PBP3 [1]; read-out: IC50 PBP3, B. subtilis PY79 whole cells, average of two experiments) [µM] | inhibition of PBP2b at MIC (PBP2b/H) [%] | IC50 (PBP2a; [6]) [µM] | MEM-BODIPY FL fluorescent signal upon pretreatment of the cells (PBP3 [2]) | PBP inhibition after growth with sub-MIC concentration (B. subtilis PBPs [3]) | IC50 (PBP3 [1]; 50% inhibition of PBP3, concentration in μM, corresponding to 0.26 μg/mL) [µM] | concentration for complete inhibition of PBP3 (PBP3 [1]; B. subtilis whole cells) | concentration for complete inhibition of PBP3 (PBP3 [1]; corresponding to 1 μg/mL) [µM] | concentration for selective and complete inhibition of PBP5 (PBP5; B. subtilis whole cells) | concentration for selective and complete inhibition of PBP5 (PBP5; corresponding to ~1 μg/mL) [µM] | IC50 values for individual PBPs in DK694 (ΔpbpH) versus wild type (B. subtilis PBPs [4])
CC(=O)OCC1=C(C(=O)O)N2C(=O)[C@@H](NC(=O)Cc3cccs3)[C@H]2SC1 [cephalothin] | 29.8 | 0.00656 | 0.0164 | 0.0151 | 273 | 0.0312 (≈ 0.0788 µM) | 0.0192 | – | – | – | – | – | – | – | – | – | – | –
Cc1onc(-c2ccccc2Cl)c1C(=O)N[C@@H]1C(=O)N2[C@@H]1SC(C)(C)[C@@H]2C(=O)O [cloxacillin] | – | > 2290 | 0.206 | 0.0505 | > 2290 | 0.125 (≈ 0.287 µM) | 0.298 | < 2290 | ≤ 50 | – | – | – | – | – | – | – | – | –
C[C@@H](O)[C@H]1C(=O)N2C(C(=O)O)=C(S[C@@H]3CN[C@H](CNS(N)(=O)=O)C3)[C@H](C)[C@H]12 [doripenem] | 0.285 | > 2380 | – | > 2380 | 0.547 | 0.0625 (≈ 0.149 µM) | – | – | – | < 2380 | – | – | – | – | – | – | – | –
C[C@@H](O)[C@H]1C(=O)N2C(C(=O)O)=C([C@H]3CCCO3)S[C@H]12 [faropenem] | 3.29 | 0.00207 | 0.0386 | 0.0315 | 0.701 | 0.125 (≈ 0.438 µM) | 0.0179 | – | – | – | – | – | – | – | – | – | – | –
CC1(C)S[C@@H]2[C@H](/N=C/N3CCCCCC3)C(=O)N2[C@H]1C(=O)O [mecillinam] | 275 | > 3070 | 20.6 | > 3070 | > 3070 | 16 (≈ 49.2 µM) | 3.29 | – | – | – | – | – | – | – | – | – | – | –
C[C@@H](O)[C@H]1C(=O)N2C(C(=O)O)=C(S[C@@H]3CN[C@H](C(=O)N(C)C)C3)[C@H](C)[C@H]12 [meropenem] | 0.678 | > 2610 | – | ≥ 2610 | 0.574 | 0.0625 (≈ 0.163 µM) | – | – | ≤ 50 | < 2610 | significantly reduced | No significant inhibition | 0.67 | ~ 1 μg/mL and 1 μg/mL | 2.6 | ~ 1 μg/mL | 2.6 | –
COc1cccc(OC)c1C(=O)N[C@@H]1C(=O)N2[C@@H]1SC(C)(C)[C@@H]2C(=O)O [methicillin] | 23.7 | > 2630 | < 0.0263 | 0.289 | 391 | 0.25 (≈ 0.657 µM) | < 0.263 | – | – | – | – | – | – | – | – | – | – | comparable and within twofold in most cases
Cc1onc(-c2ccccc2)c1C(=O)N[C@@H]1C(=O)N2[C@@H]1SC(C)(C)[C@@H]2C(=O)O [oxacillin] | 166 | > 2490 | 0.139 | < 0.249 | > 2490 | 0.25 (≈ 0.623 µM) | 0.152 | – | ≤ 50 | – | – | – | – | – | – | – | – | –
CC1(C)S[C@@H]2[C@H](NC(=O)Cc3ccccc3)C(=O)N2[C@H]1C(=O)O [penicillin G] | 4.19 | > 2990 | 0.0129 | 0.0269 | – | 16 (≈ 47.8 µM) | 0.0568 | – | – | – | – | – | – | – | – | – | – | –
CC1(C)S[C@@H]2[C@H](NC(=O)COc3ccccc3)C(=O)N2[C@H]1C(=O)O [penicillin V] | 5.82 | < 0.0285 | 0.0012 | < 0.0285 | 1.77 | 32 (≈ 91.3 µM) | < 0.0285 | – | – | – | – | – | – | – | – | – | – | –
CCN1CCN(C(=O)N[C@@H](C(=O)N[C@@H]2C(=O)N3[C@@H]2SC(C)(C)[C@@H]3C(=O)O)c2ccccc2)C(=O)C1=O [piperacillin] | 3.67 | 0.00232 | 0.309 | 0.058 | 21.8 | 64 (≈ 124 µM) | < 1.93 | – | – | – | – | – | – | – | – | – | – | –
